From US4410527A, “Substituted thienobenzodiazepinones and salts thereof” (Dr. Karl Thomae Gesellschaft mit beschrankter Haftung, priority 1982, dated 1983)

Assays:
[1] = molecular target: muscarinic receptors (cerebral cortex); experiment: Binding to muscarinic receptors, 3H-N-methylscopolamine displacement, cerebral cortex; set-up: species or system rat (male Sprague-Dawley); conditions: rat cerebral cortex homogenate 1:3000, 0.3 n molar 3H-NMS, pH 7.4, 30° C., 45 minutes; read-out: Receptor binding tests IC50 Cortex
Method: (§1) 2. Studies of Binding to Muscarinic Receptors: Determination of the IC50 value
(§2) The organ donors were male Sprague-Dawley rats with a body weight of from 180 to 220 gm. After the heart, stomach and cerebral cortex had been removed, the remainder of the operation was carried out in ice-cold Hepes-HCl buffer (pH 7.4; 100 m molar NaCl, 10 m molar MgCl2). The smooth muscle of the fundus of the stomach was separated from the mucous membrane of the stomach and subjected to preliminary homogenization. The whole heart was cut up with scissors. All the organs were then homogenized in a Potter apparatus.
(§3) For the binding test, the homogenized organs were diluted as follows:
(§4) The homogenized organ preparations were incubated at a specific concentration of the radioligand and with a series of concentrations of the non-radioactive test substances in an Eppendorf centrifuge tube at 30° C. The duration of incubation was 45 minutes. 0.3 n molar ^3 H-N-methylscopolamine (^3 H-NMS) was used as the radioligand. After incubation had been brought to an end by centrifuging at 14,000 g, the radioactivity in the pellet was determined. It represents the sum of the specific and non-specific binding of ^3 H-NMS. The proportion of non-specific binding was defined as the radioactivity which was bound in the presence of 1μ molar quinuclidinyl benzylate. Four measurements were taken in each case. The IC50 values of the nonlabelled test substances were determined graphically. They represent the concentration of test substance at which the specific binding of ^3 H-NMS to the muscarinic receptors in the various organs was inhibited by 50%.

[2] = molecular target: muscarinic receptors (smooth muscle of the fundus of the stomach); experiment: Binding to muscarinic receptors, 3H-N-methylscopolamine displacement, smooth muscle of fundus of stomach; set-up: species or system rat (male Sprague-Dawley); conditions: rat stomach fundus smooth muscle homogenate 1:100, 0.3 n molar 3H-NMS, pH 7.4, 30° C., 45 minutes; read-out: Receptor binding tests IC50 Smooth muscle fundus of stomach
Method: as §1, §2, §3
Smooth muscle of the fundus of the stomach--1: 100
as §4

[3] = molecular target: T1, muscarinic receptors (heart) (Rattus norvegicus, UniProt P10980); experiment: Binding to muscarinic receptors, 3H-N-methylscopolamine displacement, whole heart; set-up: species or system rat (male Sprague-Dawley); conditions: rat whole heart homogenate 1:250, 0.3 n molar 3H-NMS, pH 7.4, 30° C., 45 minutes; read-out: Receptor binding tests IC50 Heart
T1 construct: All the organs were then homogenized in a Potter apparatus; from tissue; host or cells: whole heart of male Sprague-Dawley rats, homogenate diluted 1:250
T1 sequence (P10980 1-466): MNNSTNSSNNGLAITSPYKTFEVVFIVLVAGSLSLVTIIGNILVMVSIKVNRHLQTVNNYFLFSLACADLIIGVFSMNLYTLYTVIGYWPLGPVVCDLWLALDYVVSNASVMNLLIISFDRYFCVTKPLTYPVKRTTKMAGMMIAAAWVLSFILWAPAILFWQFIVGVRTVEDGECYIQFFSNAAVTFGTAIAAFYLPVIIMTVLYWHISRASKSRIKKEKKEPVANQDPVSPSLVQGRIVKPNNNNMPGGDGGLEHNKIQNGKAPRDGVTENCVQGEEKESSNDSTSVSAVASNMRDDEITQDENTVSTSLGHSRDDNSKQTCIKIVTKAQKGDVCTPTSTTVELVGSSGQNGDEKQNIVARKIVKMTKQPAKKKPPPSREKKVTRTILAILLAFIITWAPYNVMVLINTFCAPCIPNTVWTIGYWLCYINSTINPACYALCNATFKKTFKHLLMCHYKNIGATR
Method: as §1, §2, §3, §4

[4] = system: oxotremorine-induced lesions in mucous membrane of stomach (muscarinic receptors); experiment: Oxotremorine test: protection against oxotremorine-induced lesions of the gastric mucous membrane (anti-ulcerogenic effect); assay type: in vivo, rat (female albino, Crl:COBS-CD (SD) BR); conditions: iv, rat, 0.62 mg/kg i.v. oxotremorine, 1 mg/kg oral neostigmine; for ED50: ED50, i.v.; for ED70: ED70, i.v.
Text: (§5) Investigation of the Selectivity of the Antimuscarinic Activity
(§6) Oxotremorine, a specific agonist for muscarinic receptors, produces lesions in the mucous membrane of the stomach in rats and increases their secretion of saliva. This test method was chosen so that any selective activity of an antimuscarinic substance on the stomach could be identified.
(§7) Ten female albino rats (of the Crl:COBS-CD (SD) BR strain) with a body weight of from 120 to 150 gm were used in each treatment group and were kept without food for 24 hours before the start of the test, but given free access to drinking water.
(§8) In order to determine, in preliminary tests, the muscarinic effect of oxotremorine on each of the symptoms studied, a dosage/activity curve was drawn up with at least three dosages for each symptom.
(§9) When testing the antimuscarinic substances, the dosage of oxotremorine which triggered the symptom in question in 90 to 100% of the animals in the preliminary tests was used.
Lesion in mucous membrane of stomach: 0.62 mg/kg i.v.
Each antimuscarinic substance was administered intravenously in uniformly graduated doses 15 minutes before the oxotremorine was administered. Control groups were given corresponding quantities of the solvent and suspending agent instead of the test substance.
(§10) The ED50 values were determined using the method described by LITCHFIELD and WILCOXON [J. Pharmacol. Exp.Ther. 96, 99, (1949)].
The effects on lesions of the mucous membrane of the stomach were evaluated as follows:
The lesions of the gastric mucous membrane were produced by intravenous injection of 0.62 mg/kg of oxotremorin 30 minutes after the oral administration of 1 mg/kg of neostigmine (a cholinesterase inhibitor). 60 minutes after the administration of the neostigmine, the animals were killed, the stomachs were removed, opened and examined for the presence of any lesions in the mucous membrane. The protective effect of the test substances was expressed as the percentage inhibition (percentage of animals without lesions). The ED50 and ED70 values were determined using the method of LITCHFIELD and WILCOXON (supra).

[5] = system: oxotremorine-induced secretion of saliva (muscarinic receptors); experiment: Oxotremorine test: inhibition of oxotremorine-induced secretion of saliva; assay type: in vivo, rat (female albino, Crl:COBS-CD (SD) BR); conditions: iv, 0.25 h; i.v., rat, 15 minutes before 0.083 mg/kg i.v. oxotremorine; read-out: Oxotremorine test Inhibition of salivation ED50
Text: as §5, §6, §7, §8, §9
Secretion of saliva: 0.083 mg/kg i.v.
Each antimuscarinic substance was administered intravenously in uniformly graduated doses 15 minutes before the oxotremorine was administered. Control groups were given corresponding quantities of the solvent and suspending agent instead of the test substance. […]
as §10

[6] = Mydriasis: effect on pupil size in rats; conditions: in vivo, iv, rat, pupil size observed for 10 minutes
Method: The effect of the test substances on the pupil size in rats was investigated as follows:
The substances were administered intravenously to groups of 10 animals in at least three uniformly graduated doses. […] The percentage of test animals in which mydriasis occurred was determined. The ED50 values were again determined using the method of LITCHFIELD and WILCOXON (supra).

Row | Structure (SMILES) | IC50 [1] [µM] | IC50 [2] [µM] | IC50 [3] [µM] | ED50 [4] [mg/kg] | ED70 [4] [mg/kg] | ED50 [5] [mg/kg] | ED50 at 10 min [6] [mg/kg]
1 | CN1CCC(OC(=O)N2c3ccccc3NC(=O)c3cscc32)CC1 [A, 4,9-Dihydro-4-{[(1-methyl-4-piperidinyl)oxy]carbonyl}-10H-thieno[3,4-b][1,5]benzodiazepin-10-one] | 0.04 | 0.2 | 0.18 | 0.017 | 0.025 | 0.1 | 0.11
2 | CN1CCC(NC(=O)N2c3ccccc3NC(=O)c3cscc32)CC1 [B, 4,9-Dihydro-4-{[(1-methyl-4-piperidinyl)amino]carbonyl}-10H-thieno[3,4-b][1,5]benzodiazepin-10-one] | 0.03 | 0.3 | 0.22 | 0.017 | 0.044 | 0.04 | 0.037
3 | CN1CCN(NC(=O)N2c3ccccc3NC(=O)c3cscc32)CC1 [C, 4,9-Dihydro-4-{[(4-methyl-1-piperazinyl)amino]carbonyl}-10H-thieno[3,4-b][1,5]benzodiazepin-10-one] | 0.02 | 0.2 | 0.09 | – | 0.019 | – | 0.03
